Some test systems named below: EKVX; UACC-257; COLO 205; HOP-92; NCI-H522; PC-3; NCI-H23; NCI-H460; SNB-75; HCC 2998; MDA-MB-435; NCI/ADR-RES; LOX IMVI; HL-60; SK-MEL-2; MCF7; HCT-116; RPMI-8226.
Holding throughout (test): inhibition of tumour cell growth, NCI panel, 48 h

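Five concentrations, 48 hours, 96-well plates. The concentration for 50% growth inhibition is given as GI50.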 Calls of active or inactive are those of the source. Rule as the data show it: active = GI50 up to about 1.1 µM and inactive = higher. Bounds are passed on as bounds.

With `c1ccc(CCNCc2ccco2)nc1`, the GI50 with EKVX, in the assay on UACC-257, with COLO 205, in the assay with HOP-92, in the assay with NCI-H522 and in the assay on PC-3 was > 100 µM (inactive) in each case. For the same compound, the GI50 in the assay with NCI-H23 is > 100 µM (inactive); in the assay with NCI-H460, > 100 µM (inactive); with SNB-75 it was > 77.4 µM (inactive); in the assay on HCC 2998, > 100 µM (inactive); in the assay on MDA-MB-435 it was > 100 µM (inactive); with NCI/ADR-RES, > 100 µM (inactive). For the same compound, the GI50 is > 100 µM (inactive) with LOX IMVI; > 100 µM (inactive) in the assay on HL-60; > 100 µM (inactive) in the assay with SK-MEL-2; > 83.9 µM (inactive) with MCF7; > 100 µM (inactive) in the assay with HCT-116.
For `CC1(C)N(OC2CCCCO2)C(c2ccccc2)C(c2ccccc2)=[N+]1[O-]` (configuration not stated), the GI50 is > 100 µM (inactive) in the assay on EKVX; > 100 µM (inactive) with UACC-257; > 100 µM (inactive) with COLO 205; > 100 µM (inactive) in the assay on HOP-92; 52.2 µM (inactive) in the assay on PC-3; 49.9 µM (inactive) in the assay on NCI-H23. For the same compound, the GI50 with NCI-H460 is 66.7 µM (inactive); in the assay with SNB-75 it was 20.1 µM (inactive); with HCC 2998, > 100 µM (inactive); with NCI/ADR-RES, 49.2 µM (inactive); in the assay on LOX IMVI, > 100 µM (inactive); with HL-60 it was 8.93 µM (inactive). Besides, the GI50 with SK-MEL-2 was 51.1 µM (inactive); in the assay with MCF7, > 100 µM (inactive); in the assay on HCT-116, 60.3 µM (inactive).
As to `N#C/N=C1\NC(Cc2ccccc2)C(=O)N1CCc1c[nH]c2ccccc12` (configuration not stated), the GI50 is 22.4 µM (inactive) in the assay on EKVX; 43.6 µM (inactive) in the assay on UACC-257; 19.7 µM (inactive) with COLO 205; 35.7 µM (inactive) with NCI-H23; 8.87 µM (inactive) with SNB-75; 19.8 µM (inactive) in the assay on HCC 2998. Also, the GI50 with RPMI-8226 is 25.6 µM (inactive); in the assay with LOX IMVI, 35.2 µM (inactive); in the assay with HL-60 it was 22.1 µM (inactive); in the assay with HCT-116, 20.6 µM (inactive).
As for `CSC1=N/C(=C\c2ccc(Cl)cc2)C(=O)N1CN1CCCCC1`, the GI50 in the assay with EKVX was 16.6 µM (inactive); in the assay on COLO 205 it was 60.1 µM (inactive); in the assay on NCI-H522, 27.4 µM (inactive); in the assay on PC-3, 35.3 µM (inactive); in the assay with NCI-H23, 64.3 µM (inactive); with SNB-75 it was 46.2 µM (inactive). The GI50 with RPMI-8226 was 37.4 µM (inactive); in the assay on MDA-MB-435, 35.9 µM (inactive); with NCI/ADR-RES, 54.3 µM (inactive); with LOX IMVI it was 44.7 µM (inactive); with SK-MEL-2, 67.5 µM (inactive); in the assay on MCF7, 5.33 µM (inactive). The GI50 with HCT-116 was 37.7 µM (inactive).
For `CC(=O)Oc1cc(OC(C)=O)c2c(c1C)CC[C@@H]1[C@@H]2CC[C@]2(C)[C@@H](OC(C)=O)CC[C@@H]12`, the GI50 in the assay on EKVX is 14.8 µM (inactive); in the assay on UACC-257, 17.7 µM (inactive); in the assay with HOP-92, 20.4 µM (inactive); with NCI-H522, 16.7 µM (inactive); in the assay on PC-3 it was 15.6 µM (inactive); in the assay on NCI-H23 it was 20.2 µM (inactive). Moreover, the GI50 in the assay on NCI-H460 is 19.3 µM (inactive); in the assay with SNB-75, 22.5 µM (inactive); with HCC 2998, 20.7 µM (inactive); in the assay on RPMI-8226, 8.15 µM (inactive); in the assay with MDA-MB-435, 16.7 µM (inactive); in the assay on NCI/ADR-RES, 22.5 µM (inactive). Also, the GI50 in the assay on LOX IMVI was 18.4 µM (inactive); in the assay on HL-60, 19.1 µM (inactive); with MCF7, 19.3 µM (inactive); in the assay with HCT-116, 15.8 µM (inactive).
On to `O=C(CC1Sc2ccccc2NC1=O)Nc1cc(Cl)ccc1Cl` (configuration not stated), for which the GI50 with EKVX was > 100 µM (inactive); in the assay on UACC-257 it was > 100 µM (inactive); in the assay on HOP-92, > 100 µM (inactive); in the assay on NCI-H23, > 100 µM (inactive); in the assay on NCI-H460, > 100 µM (inactive); with SNB-75 it was 33.4 µM (inactive). The GI50 in the assay on HCC 2998, with RPMI-8226, with LOX IMVI, in the assay on HL-60, with SK-MEL-2 and in the assay with HCT-116 was > 100 µM (inactive) throughout.
With `Nc1ccc(C(c2ccccc2)(c2ccccc2)c2ccccc2)cc1`, the GI50 in the assay on EKVX was 27.2 µM (inactive); in the assay with UACC-257, 34.3 µM (inactive); in the assay on COLO 205 it was > 100 µM (inactive); with HOP-92 it was 14 µM (inactive); in the assay with NCI-H23, 30.1 µM (inactive); in the assay on NCI-H460, 28.8 µM (inactive). Further, the GI50 in the assay on SNB-75 was 13.5 µM (inactive); in the assay with HCC 2998, > 100 µM (inactive); in the assay on RPMI-8226 it was 39 µM (inactive); with LOX IMVI, 47.6 µM (inactive); in the assay with HL-60 it was 26.8 µM (inactive); in the assay on SK-MEL-2, > 100 µM (inactive). For the same compound, in the assay with HCT-116, the GI50 is 62.1 µM (inactive).
Regarding `COc1ccc(C2C(Cl)C(=O)N2NC(=O)c2ccc(NC(C)=O)cc2)cc1` (configuration not stated), the GI50 in the assay with EKVX, in the assay on UACC-257, with COLO 205, with HOP-92, with NCI-H522 and in the assay on NCI-H23 was > 100 µM (inactive) in each case. Moreover, the GI50 with NCI-H460, with SNB-75, with LOX IMVI, with HL-60, in the assay on SK-MEL-2 and in the assay on HCT-116 was > 100 µM (inactive) in each case.
Turning to `COc1ccc([C@H](NC(=O)c2ccccc2)[C@@H](O)C(=O)O[C@H]2C[C@@]3(O)C(OC(=O)c4ccccc4)C4[C@](C)(C(=O)[C@H](OC(C)=O)C(=C2C)C3(C)C)[C@@H](O)C[C@H]2OC[C@@]42OC(C)=O)cc1` (some centres not stated), the GI50 is 0.22 µM (active) in the assay with EKVX; 0.00542 µM (active) in the assay with UACC-257; 0.00274 µM (active) with COLO 205; 0.0586 µM (active) in the assay with HOP-92; 0.00227 µM (active) with NCI-H522; 0.00255 µM (active) with PC-3. Also, the GI50 is 0.00236 µM (active) in the assay on NCI-H23; 0.00931 µM (active) in the assay with NCI-H460; < 0.001 µM (active) with SNB-75; 0.00301 µM (active) in the assay on HCC 2998; < 0.001 µM (active) with RPMI-8226; < 0.001 µM (active) with MDA-MB-435. The GI50 with NCI/ADR-RES is > 6.43 µM (inactive); with LOX IMVI it was 0.0012 µM (active); in the assay with HL-60, < 0.001 µM (active); with SK-MEL-2 it was 0.00705 µM (active); with MCF7 it was < 0.001 µM (active); in the assay with HCT-116, < 0.001 µM (active).
For the compound `O=S1(=O)OCCOS(=O)(=O)C1S(=O)(=O)c1cccc2ccccc12`, the GI50 in the assay on EKVX was > 100 µM (inactive); with UACC-257 it was > 100 µM (inactive); in the assay with COLO 205 it was > 100 µM (inactive); in the assay with HOP-92 it was > 100 µM (inactive); in the assay with PC-3 it was 42.3 µM (inactive); in the assay on NCI-H23 it was > 100 µM (inactive). In addition, the GI50 with NCI-H460 is 54.6 µM (inactive); in the assay with HCC 2998, > 100 µM (inactive); in the assay with RPMI-8226 it was > 100 µM (inactive); in the assay on MDA-MB-435 it was > 100 µM (inactive); with NCI/ADR-RES it was > 100 µM (inactive); in the assay on LOX IMVI it was 46.7 µM (inactive). In addition, the GI50 in the assay on HL-60 is 68.5 µM (inactive); with SK-MEL-2 it was > 100 µM (inactive); in the assay on MCF7 it was > 100 µM (inactive); in the assay with HCT-116 it was 24 µM (inactive).

These data come from ChEMBL document CHEMBL1201862, “PubChem BioAssay data set” (2004).
